Laboratory results: PubChem BioAssay (NCI)
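The compound was tested at five concentrations on cells cultured in 96-well plates, with a 48-hour exposure period. At the GI50, growth is halved. TGI denotes the concentration required for complete inhibition of growth.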

What was measured:
Assay in all cases: NCI tumour cell line growth inhibition, 48 h
786-0 renal = test system: 786-0 renal
A498 renal = test system: A498 renal
A549 NSCLC = test system: A549 NSCLC
ACHN renal = test system: ACHN renal
BT-549 breast = test system: BT-549 breast
CAKI-1 renal = test system: CAKI-1 renal
CCRF-CEM leukemia = test system: CCRF-CEM leukemia
COLO 205 colon = test system: COLO 205 colon
DU-145 prostate = test system: DU-145 prostate
EKVX NSCLC = test system: EKVX NSCLC
HCC-2998 colon = test system: HCC-2998 colon
HCT-116 colon = test system: HCT-116 colon
HCT-15 colon = test system: HCT-15 colon
HL-60(TB) leukemia = test system: HL-60(TB) leukemia
HOP-92 NSCLC = test system: HOP-92 NSCLC
HS 578T breast = test system: HS 578T breast
HT29 colon = test system: HT29 colon
IGROV1 ovarian = test system: IGROV1 ovarian
K-562 leukemia = test system: K-562 leukemia
KM12 colon = test system: KM12 colon
LOX IMVI melanoma = test system: LOX IMVI melanoma
M14 melanoma = test system: M14 melanoma
MALME-3M melanoma = test system: MALME-3M melanoma
MCF7 breast = test system: MCF7 breast
MDA-MB-231 breast = test system: MDA-MB-231 breast
MDA-MB-435 = test system: MDA-MB-435
MOLT-4 leukemia = test system: MOLT-4 leukemia
NCI-H226 lung = test system: NCI-H226 lung
NCI-H23 lung = test system: NCI-H23 lung
NCI-H460 lung = test system: NCI-H460 lung
NCI-H522 lung = test system: NCI-H522 lung
NCI/ADR-RES ovarian = test system: NCI/ADR-RES ovarian
OVCAR-3 ovarian = test system: OVCAR-3 ovarian
OVCAR-4 ovarian = test system: OVCAR-4 ovarian
OVCAR-5 ovarian = test system: OVCAR-5 ovarian
OVCAR-8 ovarian = test system: OVCAR-8 ovarian
PC-3 prostate = test system: PC-3 prostate
RPMI-8226 leukemia = test system: RPMI-8226 leukemia
RXF 393 renal = test system: RXF 393 renal
SF-268 CNS = test system: SF-268 CNS
SF-295 CNS = test system: SF-295 CNS
SF-539 CNS = test system: SF-539 CNS
SK-MEL-2 melanoma = test system: SK-MEL-2 melanoma
SK-MEL-28 melanoma = test system: SK-MEL-28 melanoma
SK-MEL-5 melanoma = test system: SK-MEL-5 melanoma
SK-OV-3 ovarian = test system: SK-OV-3 ovarian
SN12C renal = test system: SN12C renal
SNB-19 CNS = test system: SNB-19 CNS
SNB-75 CNS = test system: SNB-75 CNS
SR leukemia = test system: SR leukemia
SW-620 colon = test system: SW-620 colon
T-47D breast = test system: T-47D breast
TK-10 renal = test system: TK-10 renal
U251 CNS = test system: U251 CNS
UACC-257 melanoma = test system: UACC-257 melanoma
UACC-62 melanoma = test system: UACC-62 melanoma
UO-31 renal = test system: UO-31 renal

Question: With `COc1cc(C(=O)N2CCN(c3ccccn3)CC2)c(N)cc1OCc1ccccc1` as the molecule, how does the GI50 (786-0 renal) read?
Answer: > 100 µM

Question: And the TGI (786-0 renal)?
Answer: > 100 µM

Question: What about the GI50 (A498 renal) of the same molecule?
Answer: 91.2 µM

Question: What about the TGI (A498 renal) of the same molecule?
Answer: > 100 µM

Question: What about the GI50 (A549 NSCLC) of the same molecule?
Answer: > 100 µM

Question: And the TGI (A549 NSCLC)?
Answer: > 100 µM

Question: What about the GI50 (ACHN renal) of the same molecule?
Answer: > 100 µM

Question: What about the TGI (ACHN renal) of the same molecule?
Answer: > 100 µM

Question: What about the GI50 (BT-549 breast) of the same molecule?
Answer: 66.4 µM

Question: And the TGI (BT-549 breast)?
Answer: > 100 µM

Question: What about the GI50 (CAKI-1 renal) of the same molecule?
Answer: > 100 µM

Question: And the TGI (CAKI-1 renal)?
Answer: > 100 µM

Question: And the GI50 (CCRF-CEM leukemia)?
Answer: 21 µM

Question: And the TGI (CCRF-CEM leukemia)?
Answer: 39.5 µM

Question: What about the GI50 (COLO 205 colon) of the same molecule?
Answer: 96.8 µM

Question: And the TGI (COLO 205 colon)?
Answer: > 100 µM

Question: And the GI50 (DU-145 prostate)?
Answer: > 100 µM

Question: And the TGI (DU-145 prostate)?
Answer: > 100 µM

Question: And the GI50 (EKVX NSCLC)?
Answer: > 100 µM

Question: What about the TGI (EKVX NSCLC) of the same molecule?
Answer: > 100 µM

Question: And the GI50 (HCC-2998 colon)?
Answer: > 100 µM

Question: What about the TGI (HCC-2998 colon) of the same molecule?
Answer: > 100 µM

Question: And the GI50 (HCT-116 colon)?
Answer: > 100 µM

Question: And the TGI (HCT-116 colon)?
Answer: > 100 µM

Question: And the GI50 (HCT-15 colon)?
Answer: > 100 µM

Question: And the TGI (HCT-15 colon)?
Answer: > 100 µM

Question: And the GI50 (HL-60(TB) leukemia)?
Answer: 82.4 µM

Question: What about the TGI (HL-60(TB) leukemia) of the same molecule?
Answer: > 100 µM

Question: And the GI50 (HOP-92 NSCLC)?
Answer: > 100 µM

Question: And the TGI (HOP-92 NSCLC)?
Answer: > 100 µM

Question: What about the GI50 (HS 578T breast) of the same molecule?
Answer: > 100 µM

Question: And the TGI (HS 578T breast)?
Answer: > 100 µM

Question: What about the GI50 (HT29 colon) of the same molecule?
Answer: 78.2 µM

Question: And the TGI (HT29 colon)?
Answer: > 100 µM

Question: And the GI50 (IGROV1 ovarian)?
Answer: > 100 µM

Question: What about the TGI (IGROV1 ovarian) of the same molecule?
Answer: > 100 µM

Question: And the GI50 (K-562 leukemia)?
Answer: 20 µM

Question: And the TGI (K-562 leukemia)?
Answer: 74.1 µM

Question: What about the GI50 (KM12 colon) of the same molecule?
Answer: > 100 µM

Question: And the TGI (KM12 colon)?
Answer: > 100 µM

Question: And the GI50 (LOX IMVI melanoma)?
Answer: > 100 µM

Question: And the TGI (LOX IMVI melanoma)?
Answer: > 100 µM

Question: What about the GI50 (M14 melanoma) of the same molecule?
Answer: > 100 µM

Question: And the TGI (M14 melanoma)?
Answer: > 100 µM

Question: And the GI50 (MALME-3M melanoma)?
Answer: > 100 µM

Question: What about the TGI (MALME-3M melanoma) of the same molecule?
Answer: > 100 µM

Question: And the GI50 (MCF7 breast)?
Answer: 58.5 µM

Question: And the TGI (MCF7 breast)?
Answer: > 100 µM

Question: And the GI50 (MDA-MB-231 breast)?
Answer: > 100 µM

Question: And the TGI (MDA-MB-231 breast)?
Answer: > 100 µM

Question: What about the GI50 (MDA-MB-435) of the same molecule?
Answer: > 100 µM

Question: What about the TGI (MDA-MB-435) of the same molecule?
Answer: > 100 µM

Question: And the GI50 (MOLT-4 leukemia)?
Answer: 34.1 µM

Question: What about the TGI (MOLT-4 leukemia) of the same molecule?
Answer: > 100 µM

Question: What about the GI50 (NCI-H226 lung) of the same molecule?
Answer: > 100 µM

Question: And the TGI (NCI-H226 lung)?
Answer: > 100 µM

Question: And the GI50 (NCI-H23 lung)?
Answer: > 100 µM

Question: What about the TGI (NCI-H23 lung) of the same molecule?
Answer: > 100 µM

Question: What about the GI50 (NCI-H460 lung) of the same molecule?
Answer: > 100 µM

Question: And the TGI (NCI-H460 lung)?
Answer: > 100 µM

Question: And the GI50 (NCI-H522 lung)?
Answer: > 100 µM

Question: What about the TGI (NCI-H522 lung) of the same molecule?
Answer: > 100 µM

Question: What about the GI50 (NCI/ADR-RES ovarian) of the same molecule?
Answer: 74.6 µM

Question: And the TGI (NCI/ADR-RES ovarian)?
Answer: > 100 µM

Question: And the GI50 (OVCAR-3 ovarian)?
Answer: 55.8 µM

Question: What about the TGI (OVCAR-3 ovarian) of the same molecule?
Answer: > 100 µM

Question: What about the GI50 (OVCAR-4 ovarian) of the same molecule?
Answer: 69.9 µM

Question: What about the TGI (OVCAR-4 ovarian) of the same molecule?
Answer: > 100 µM

Question: What about the GI50 (OVCAR-5 ovarian) of the same molecule?
Answer: > 100 µM

Question: And the TGI (OVCAR-5 ovarian)?
Answer: > 100 µM

Question: What about the GI50 (OVCAR-8 ovarian) of the same molecule?
Answer: > 100 µM

Question: And the TGI (OVCAR-8 ovarian)?
Answer: > 100 µM

Question: What about the GI50 (PC-3 prostate) of the same molecule?
Answer: > 100 µM

Question: What about the TGI (PC-3 prostate) of the same molecule?
Answer: > 100 µM

Question: What about the GI50 (RPMI-8226 leukemia) of the same molecule?
Answer: 56.4 µM

Question: And the TGI (RPMI-8226 leukemia)?
Answer: > 100 µM

Question: What about the GI50 (RXF 393 renal) of the same molecule?
Answer: > 100 µM

Question: And the TGI (RXF 393 renal)?
Answer: > 100 µM

Question: What about the GI50 (SF-268 CNS) of the same molecule?
Answer: > 100 µM

Question: And the TGI (SF-268 CNS)?
Answer: > 100 µM

Question: What about the GI50 (SF-295 CNS) of the same molecule?
Answer: > 100 µM

Question: And the TGI (SF-295 CNS)?
Answer: > 100 µM

Question: And the GI50 (SF-539 CNS)?
Answer: > 100 µM

Question: What about the TGI (SF-539 CNS) of the same molecule?
Answer: > 100 µM

Question: What about the GI50 (SK-MEL-2 melanoma) of the same molecule?
Answer: > 100 µM

Question: What about the TGI (SK-MEL-2 melanoma) of the same molecule?
Answer: > 100 µM

Question: And the GI50 (SK-MEL-28 melanoma)?
Answer: > 100 µM

Question: And the TGI (SK-MEL-28 melanoma)?
Answer: > 100 µM

Question: And the GI50 (SK-MEL-5 melanoma)?
Answer: 30.1 µM

Question: What about the TGI (SK-MEL-5 melanoma) of the same molecule?
Answer: > 100 µM

Question: What about the GI50 (SK-OV-3 ovarian) of the same molecule?
Answer: > 100 µM

Question: What about the TGI (SK-OV-3 ovarian) of the same molecule?
Answer: > 100 µM

Question: And the GI50 (SN12C renal)?
Answer: 46.8 µM

Question: And the TGI (SN12C renal)?
Answer: > 100 µM

Question: And the GI50 (SNB-19 CNS)?
Answer: > 100 µM

Question: What about the TGI (SNB-19 CNS) of the same molecule?
Answer: > 100 µM

Question: And the GI50 (SNB-75 CNS)?
Answer: 39.9 µM

Question: And the TGI (SNB-75 CNS)?
Answer: > 100 µM

Question: What about the GI50 (SR leukemia) of the same molecule?
Answer: 77.7 µM

Question: And the TGI (SR leukemia)?
Answer: > 100 µM

Question: And the GI50 (SW-620 colon)?
Answer: > 100 µM

Question: What about the TGI (SW-620 colon) of the same molecule?
Answer: > 100 µM

Question: And the GI50 (T-47D breast)?
Answer: 45.2 µM

Question: What about the TGI (T-47D breast) of the same molecule?
Answer: > 100 µM

Question: And the GI50 (TK-10 renal)?
Answer: > 100 µM

Question: And the TGI (TK-10 renal)?
Answer: > 100 µM

Question: And the GI50 (U251 CNS)?
Answer: > 100 µM

Question: What about the TGI (U251 CNS) of the same molecule?
Answer: > 100 µM

Question: And the GI50 (UACC-257 melanoma)?
Answer: > 100 µM

Question: What about the TGI (UACC-257 melanoma) of the same molecule?
Answer: > 100 µM

Question: What about the GI50 (UACC-62 melanoma) of the same molecule?
Answer: 81 µM

Question: What about the TGI (UACC-62 melanoma) of the same molecule?
Answer: > 100 µM

Question: And the GI50 (UO-31 renal)?
Answer: 68.3 µM

Question: What about the TGI (UO-31 renal) of the same molecule?
Answer: > 100 µM
